# Data published in article PMC3174345 (Arthritis and rheumatism, 2011).
# Assays:
# [1] = system: splenocytes of DR0401-IE mice; experiment: 3H-thymidine proliferation recall assay of splenocytes from immunized mice; type: cell-based, mouse
# DR0401-IE mice = settings: mouse, in vivo
substance,measurement,setting,value
"cit-vim59-71: shorter citrullinated vimentin peptide, aa 59-71 (GVYATRSSAVRLR; citrullinated; UniProt P08670 59-71, looked up, fragment)",proliferative recall response at 13 weeks,[1]; immunized DR0401-IE mice harvested at week 13 (supplemental fig. 1),strong proliferative recall response
same,immunodominant region in in vitro restimulation,"[1]; mice immunized with cit-vim59-78, challenge with short peptides at 5 μg/ml, n=13",immunologically dominant region
same,mice developing signs of ankle swelling or polyarthritis,DR0401-IE mice,none
